Data reported in ChEMBL document CHEMBL3352740, “Pyrrolopyrimidine Analogues as MKNK Inhibitors” (ACS Med Chem Lett, 2015).

target: MAP kinase-interacting serine/threonine-protein kinase 1 (Homo sapiens, UniProt Q9BUB5); assay: Inhibition of human full-length MKNK1 using biotin-Ahx-IKKRKLTRRKSLKG substrate by TR-FRET-based high ATP assay
Sequence (Q9BUB5 whole entry): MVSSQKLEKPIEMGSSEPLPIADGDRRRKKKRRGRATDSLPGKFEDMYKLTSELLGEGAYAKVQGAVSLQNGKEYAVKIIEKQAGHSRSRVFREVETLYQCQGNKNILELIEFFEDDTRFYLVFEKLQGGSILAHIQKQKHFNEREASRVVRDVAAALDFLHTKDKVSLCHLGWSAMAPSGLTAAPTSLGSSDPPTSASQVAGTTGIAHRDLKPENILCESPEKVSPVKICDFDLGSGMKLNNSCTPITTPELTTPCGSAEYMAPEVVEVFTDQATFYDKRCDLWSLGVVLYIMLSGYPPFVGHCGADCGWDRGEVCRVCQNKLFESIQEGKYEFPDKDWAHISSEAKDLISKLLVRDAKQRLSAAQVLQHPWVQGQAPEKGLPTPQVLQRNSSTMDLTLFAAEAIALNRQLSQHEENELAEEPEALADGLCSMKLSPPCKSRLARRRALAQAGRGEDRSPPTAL

IC50 [nM] | SMILES
6 | COc1cc(Cl)c(Cl)cc1Nc1ncnc2[nH]c3c(c12)CC(C(=O)NC1CC1)CC3 (stereo unspecified)
5 | CC(C)Oc1cc2[nH]ncc2cc1Nc1ncnc2[nH]c3c(c12)CCCC3
6 | CCNC(=O)C1CCc2[nH]c3ncnc(Nc4cc5cn[nH]c5cc4OC)c3c2C1 (stereo unspecified)
1 | COc1cc2[nH]ncc2cc1Nc1ncnc2[nH]c3c(c12)CC(C(=O)NCc1ccccc1)CC3 (stereo unspecified)
3540 | O=C1OCCOc2cc(F)ccc2Nc2ncnc3[nH]c4c(c23)CC1CC4 (stereo unspecified)
1 | CC(C)Oc1cc2[nH]ncc2cc1Nc1ncnc2[nH]c3c(c12)CC(C(=O)NCCCS(C)(=O)=O)CC3 (stereo unspecified)
